Assay results from US20240400604A1, “NUCLEOSIDE TRIPHOSPHATE PHOTOAFFINITY PROBE, METHOD FOR PREPARING SAME, AND APPLICATIONS THEREOF” (SHANDONG UNIVERSITY, priority 2023, published 2024).
Each block holds one molecule with its values, some of them ahead of it.

Experiments:
[1] = tested on: GTP-binding proteins in HEK 293T cell lysates; assay: In-gel fluorescence imaging of HEK 293T cell lysate labeled with the GTP probes; conditions: competitor incubated on ice 10 minutes before probe; 50 μM GTP-O probe (FIG. 11)
Procedure: Appropriate amount cells were incubated on ice for 30 min in 1% lysis buffer (1% Triton X-100, 50 mM HEPES (pH 7.4), 150 mM NaCl, supplemented with phosphatase inhibitor A, phosphatase inhibitor B, and protease inhibitor right before use) at 5-10 times the cell volume. Vortexing for 5 seconds every 10 minutes. The cell lysates were centrifuged at 12,000 rpm at 4° C. for 30 min, and the supernatants were passed through an Amersham NAP-5 column to remove endogenous nucleosides. The proteins were quantified using a Bradford protein assay kit. Approximately 100 μg protein was diluted with 0.1% lysis buffer (0.1% Triton X-100, 50 mM HEPES, 150 mM sodium chloride). To the solution was added 1 mM magnesium chloride, the GTP probe and competitors to designated concentrations. The final volume for the reaction was 100 μL and the final protein concentration was […]. After incubated on ice, the solution was irradiated with 365-nm UV light for 30 min. To the solution were added freshly prepared tris-(2-carboxyethyl)phosphine (TCEP) until its concentration reached 1 mM, and a CuAAC reaction mixture to reach a final concentration of 1 mM CuSO4, 0.1 mM tris[(1-benzyl-1H-1,2,3-triazol-4-yl)methyl]amine (TBTA), and 0.1 mM rhodamine β-PEG3-azide. The mixture was incubated at room temperature for 2 hrs and then precipitated in a solution of chloroform: methanol: water (4:3:1, v/v). After washing with cold methanol and air dried, the protein pellet was dissolved in 30 μL 4% SDS buffer (4% SDS, 50 mM HEPES (pH 7.4), 150 mM NaCl, 50 mM Trolamine). The protein concentration was determined using a BCA protein assay kit. A solution of approximately 20 μg proteins was added 4×loading buffer (0.25M Trometamol, pH=6.8, 4% SDS, 40% Glycerol, 0.02% bromophenol blue, add 200 μL 2-Mercaptoethanol to 800 μL buffer right before use), boiled at 95° C. for 5 min and loaded onto an SDS-PAGE gel (4% stacking gel, 10% separating gel). Then perform SDS-PAGE separation at a constant voltage of 90 V for about 110 minutes. At the end of electrophoresis, cut the separation gel and imaged with an Amersham Imager 600 (GE Healthcare) at 520 nm. The gel was then stained with Coomassie Brilliant Blue staining solution (0.1% Coomassie brilliant blue, 10% acetic acid, 50% methanol) for 30 min and destained with destaining solution (10% acetic acid, 30% methanol) to remove background color.

[2] = tested on: ATP-binding proteins in HEK 293T cell lysates; assay: In-gel fluorescence imaging of HEK 293T cell lysates labeled with the ATP-N probe; conditions: 10 μM ATP-N probe, FIG. 23c
ACTR2 = target: T1, ACTR2 (Homo sapiens, UniProt P61160); assay: EHT 1864 competitive GTP-N probe labeling of HEK 293T cell lysates, LC-MS/MS; format: binding; conditions: GTP-N probe 20 μM; EHT 1864 20, 40, 100, 200 μM
T1 construct: endogenous in cells; host or cells: HEK 293T cell lysate
Procedure: (§1) Using the On-Beads digestion method, the GTP-N probe was used for protein labeling of HEK 293T cell lysates. For the competition experiments, a GTP-competitive inhibitor EHT 1864 was added before probe labeling to inhibit probe binding with targeted GTP-binding proteins. The final concentration of the probe was 20 μM, and EHT 1864 was used at concentrations of 20 μM, 40 μM, 100 μM, and 200 μM, respectively. The inhibitor was pre-incubated with cell lysates on ice for 10 minutes, followed by the GTP-N probe labeling, sample preparation, and LC-MS/MS analysis, same as in Section 1.3 of Example 3.

ACTR3 = target: T2, ACTR3 (Homo sapiens, UniProt P61158); assay: as above; format: binding; conditions: GTP-N probe 20 μM; EHT 1864 20, 40, 100, 200 μM
T2 construct: the GTP-N probe was used for protein labeling of HEK 293T cell lysates; endogenous in cells; host or cells: HEK 293T cell lysate
Procedure: as §1

PLCG1 = target: T3, PLCG1 (Homo sapiens, UniProt P19174); assay: as above; format: binding; conditions: GTP-N probe 20 μM; EHT 1864 20, 40, 100, 200 μM
T3 construct: the GTP-N probe was used for protein labeling of HEK 293T cell lysates; endogenous in cells; host or cells: HEK 293T cell lysate
T3 sequence (P19174 1-1290): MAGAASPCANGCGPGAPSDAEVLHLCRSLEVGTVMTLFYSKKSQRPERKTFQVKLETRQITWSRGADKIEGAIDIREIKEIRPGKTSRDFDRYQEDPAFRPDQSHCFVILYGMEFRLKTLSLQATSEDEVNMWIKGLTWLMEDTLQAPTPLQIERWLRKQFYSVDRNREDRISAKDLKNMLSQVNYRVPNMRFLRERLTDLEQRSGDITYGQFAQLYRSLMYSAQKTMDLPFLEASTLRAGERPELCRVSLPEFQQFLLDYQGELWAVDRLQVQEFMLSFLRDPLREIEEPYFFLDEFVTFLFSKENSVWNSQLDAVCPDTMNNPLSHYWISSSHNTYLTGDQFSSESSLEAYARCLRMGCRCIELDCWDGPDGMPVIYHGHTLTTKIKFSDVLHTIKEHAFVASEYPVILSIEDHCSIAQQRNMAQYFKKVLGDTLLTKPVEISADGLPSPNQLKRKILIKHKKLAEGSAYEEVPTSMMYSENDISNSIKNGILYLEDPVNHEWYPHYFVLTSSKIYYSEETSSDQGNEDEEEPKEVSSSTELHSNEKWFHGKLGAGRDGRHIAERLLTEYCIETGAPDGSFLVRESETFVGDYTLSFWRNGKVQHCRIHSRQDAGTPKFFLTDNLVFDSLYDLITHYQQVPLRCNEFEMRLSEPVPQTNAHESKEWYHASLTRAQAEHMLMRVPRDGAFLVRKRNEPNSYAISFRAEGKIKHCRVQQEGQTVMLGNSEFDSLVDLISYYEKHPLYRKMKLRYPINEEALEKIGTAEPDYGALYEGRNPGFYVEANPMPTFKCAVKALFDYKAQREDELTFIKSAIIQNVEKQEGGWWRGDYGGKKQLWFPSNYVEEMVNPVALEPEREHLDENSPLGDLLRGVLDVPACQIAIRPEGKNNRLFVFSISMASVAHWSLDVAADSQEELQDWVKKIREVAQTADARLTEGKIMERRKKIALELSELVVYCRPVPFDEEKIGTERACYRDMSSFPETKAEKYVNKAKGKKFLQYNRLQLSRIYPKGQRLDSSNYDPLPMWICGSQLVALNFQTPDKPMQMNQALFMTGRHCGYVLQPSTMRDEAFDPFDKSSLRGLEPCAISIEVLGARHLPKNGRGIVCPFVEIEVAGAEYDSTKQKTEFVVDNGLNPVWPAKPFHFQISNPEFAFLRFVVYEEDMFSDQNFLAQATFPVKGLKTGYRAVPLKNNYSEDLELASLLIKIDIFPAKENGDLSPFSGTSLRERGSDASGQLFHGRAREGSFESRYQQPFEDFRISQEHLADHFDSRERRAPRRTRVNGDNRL
Procedure: as §1

[3] = tested on: GTP-binding proteins in HEK 293T cell lysates; assay: Proteomic LC-MS/MS analysis of HEK 293T cell lysate labeled with GTP probes; parameters: species or system human
Procedure: Under optimized conditions, HEK 293T cell lysates were labeled using the GTP photoaffinity probes. Peptide samples were prepared via the On-Beads enzymatic digestion method for proteomic study. Approximately 1 mg of proteins was labeled with 0.1 mM GTP probe and irradiated with 365-nm UV light for 30 min. To the solution were added freshly prepared tris-(2-carboxyethyl)phosphine (TCEP) until its concentration reached 1 mM, and a CuAAC reaction mixture to reach a final concentration of 1 mM CuSO4, 0.1 mM tris[(1-benzyl-1H-1,2,3-triazol-4-yl)methyl]amine (TBTA), and 0.5 mM biotin-PEG3-azide (for GTP-O probe labeled samples), or 0.5 mM biotin-DADPS-azide (for GTP-N probe labeled samples). The mixture was vortexed at room temperature for 2 hours and then precipitated in ice-cold methanol overnight.
The precipitated proteins were dissolved in 100 μL 4% SDS buffer (4% SDS, 150 mM NaCl, 50 mM HEPES, pH=7.4), and diluted with 900 μL SDS-free HEPES buffer (150 mM NaCl, 50 mM HEPES, pH=7.4). High-capacity streptavidin beads (50 μL per sample) were washed three times with 20 times volume of wash buffer (150 mM sodium chloride, 50 mM HEPES, pH=7.4) before adding to the samples. After incubation on a rotary shaker at room temperature for 2 hours, non-specifically bound proteins were washed away in a centrifugal filtration column using 1× PBS containing 1% SDS, 10× PBS, 1× PBS, water, and 50 mM ammonium bicarbonate solution with 8 M urea, each wash using 1 mL of solution for five times. The beads were transferred to a centrifuge tube using 50 mM ammonium bicarbonate solution containing 8 M urea and resuspended with 500 μL of this solution. The disulfide bonds were reduced by adding 20 mM TCEP and incubating at 37° C. for 1 hour, and then alkylated with 50 mM iodacetamide at room temperature in the dark for 30 minutes. After centrifugation at 3000 rpm for 2 minutes, the supernatant was gently removed. The beads were washed with 25 mM ammonium bicarbonate three times, resuspended in 100 μL 25 mM ammonium bicarbonate, and incubated with 1 μg of MS-grade trypsin (1 μg/μL) at 37° C. for 18 hrs.
The beads were washed with 200 μL of 25 mM ammonium bicarbonate solution, then centrifuged at 12000 rpm for 2 minutes to collect the supernatant. The procedure was repeated 6 times, and the supernatants were combined to obtain sample 1 (peptides without probe modification). For GTP-O probe labeled samples, the beads were resuspended in 200 μL of 70% acetonitrile solution containing 1% trifluoroacetic acid, vortexed for 5 minutes, then centrifuged at 12000 rpm for 2 minutes to collect the supernatant. The procedure was repeated 5 times, and the supernatants were combined to obtain sample 2 (containing probe-modified peptides). For GTP-N probe labeled samples, the beads were resuspended in 100 μL of 10% formic acid, incubated on a rotary shaker at room temperature for 30 minutes, then centrifuged at 12000 rpm for 2 minutes to collect the supernatant. The procedure was repeated 3 times, and the supernatants were combined. Trifluoroacetic acid was added to a final concentration of 1%, and incubated at 37° C. for 30 minutes to obtain sample 2. The peptide solutions were dried with a centrifugal concentrator and desalted using C18 tips, then frozen at −80° C. until LC-MS/MS detection. Samples were dissolved in 20 μL of pure water, 4 μL of sample 1 and 8 μL of sample 2 were injected for analysis.
An EASY-nLC 1200 liquid chromatography coupled with a Q-Exactive Orbitrap mass spectrometer was employed for LC-MS/MS analysis. A homemade C18 capillary column (inner diameter 75 μm, column length 18 cm) packed with Reprosil-Pur120 C18-AQ (Dr. maisch, particle size […]) was utilized as the separation column. The precolumn (inner diameter 150 μm, column length 4 cm) was packed with Reprosil-Pur120 C18-AQ (Dr. maisch, particle size 5 μm,). The mobile phase A was 0.1% formic acid, while mobile phase B was 0.1% formic acid in 80% acetonitrile, and the flow rate was 300 nL/min. […]

[4] = three biological replicates, 0.1 mM probe, control probe = GTP-ctrl probe

Structure (SMILES): Nc1ncnc2c1ncn2[C@@H]1O[C@H](COP(=O)(O)OP(=O)(O)OP(=O)(O)O)[C@@H](O)[C@H]1O [ATP, adenosine triphosphate]
- competition effect on probe labeling (fluorescence of labeled bands) [1]: non-specific competition

Structure (SMILES): Nc1ncnc2c1ncn2[C@@H]1O[C@H](COP(=O)(O)O)[C@@H](O)[C@H]1O [AMP, reference compound]
- competition effect on ATP-N probe labeling [2]: not significant

Structure (SMILES): Nc1nc2c(ncn2[C@@H]2O[C@H](COP(=O)(O)OP(=O)(O)OP(=O)(O)O)[C@@H](O)[C@H]2O)c(=O)[nH]1 [GTP, guanosine triphosphate]
- competition effect on probe labeling (fluorescence of labeled bands) [1]: significantly decrease the fluorescence intensity of several labeled proteins bands

- protein intensity of ACTR2 in competition groups (ACTR2): overall decreased protein intensities
- protein intensity of ACTR3 in competition groups (ACTR3): overall decreased protein intensities
- protein intensity of PLCG1 in competition groups (PLCG1): overall decreased protein intensities
Structure (SMILES): O=c1cc(CN2CCOCC2)occ1OCCCCCSc1ccnc2cc(C(F)(F)F)ccc12 [EHT 1864]

Structure (SMILES): C#CCCC1(CCOP(=O)(O)OP(=O)(O)OP(=O)(O)OC[C@H]2O[C@@H](n3cnc4c(=O)[nH]c(N)nc43)C(O)[C@H]2O)N=N1 (stereo partly shown) [GTP-O probe]
- probe-modified sites on labeled proteins ([3]; LC-MS/MS of sample 2 (probe-modified peptides)): not detected
- GTP-binding proteins identified [3, 4]: 95
- total proteins identified [3, 4]: 1808

Structure (SMILES): Nc1nc2c(ncn2[C@@H]2O[C@H](COP(=O)([O-])[O-])[C@@H](O)[C@H]2O)c(=O)[nH]1.[Na+].[Na+] [GMP, guanosine 5′-monophosphate disodium salt]
- competition effect on probe labeling (fluorescence of labeled bands) [1]: non-specific competition
